In patent publication US5770573A, “CS-1 peptidomimetics, compositions and methods of using the same” (Cytel Corporation, priority 1995, dated 1998):
Numbered stars: 1 amine (or outer) side, 2 acyl side, 3 side chain; on linkers, the order of the positions; unused ones are H or OH. Square brackets hold non-standard residues; d marks the D form. Peptide text beside a SMILES is read from it. * marks the point of attachment. X20 = O=C(CCCCCO[C@@H]1O[C@H](CO)[C@@H](O)[C@H](O)[C@H]1N[*:1])[*:2]; NHOctadecyl = CCCCCCCCCCCCCCCCCCN*; NMeF = CN[C@@H](Cc1ccccc1)C(=O)O; hPhe = N[C@@H](CCc1ccccc1)C(=O)O; Cha = N[C@@H](CC1CCCCC1)C(=O)O; NMeD = CN[C@@H](CC(=O)O)C(=O)O; NMeL = CN[C@@H](CC(C)C)C(=O)O; X8 = CCCCCCCCCCCCCCCCCCO*; Nle = CCCC[C@H](N)C(=O)O; Piperidide = C1CCN(*)CC1; X7 = O=C(CO*)OCc1ccccc1; NHDecyl = CCCCCCCCCCN*; PhAc = O=C(Cc1ccccc1)*; ODecyl = CCCCCCCCCCO*; X1 = CCCCCCCCCCCCCCO*; Inp = O=C(O)C1CCNCC1; X4 = CCN(CC)C(=O)CO*; OBn = c1ccc(CO*)cc1; X5 = CCCCCCCCCCCCO*; Ahx = NCCCCCC(=O)O; Sar = CNCC(=O)O; X6 = O=C(O)CO*

target: VLA-4 (Homo sapiens, UniProt P05556+P13612); test: In vitro binding inhibition of 51Cr-labeled Jurkat cells to solid phase-bound CS-1 compound (SEQ ID NO:1); assay type: cell-based; set-up: inflammatory cells that contain the VLA-4 receptor [Jurkat cells; host or cells: Jurkat (human T lymphoblastic line); settings: not given
Sequence (P13612 34-1032): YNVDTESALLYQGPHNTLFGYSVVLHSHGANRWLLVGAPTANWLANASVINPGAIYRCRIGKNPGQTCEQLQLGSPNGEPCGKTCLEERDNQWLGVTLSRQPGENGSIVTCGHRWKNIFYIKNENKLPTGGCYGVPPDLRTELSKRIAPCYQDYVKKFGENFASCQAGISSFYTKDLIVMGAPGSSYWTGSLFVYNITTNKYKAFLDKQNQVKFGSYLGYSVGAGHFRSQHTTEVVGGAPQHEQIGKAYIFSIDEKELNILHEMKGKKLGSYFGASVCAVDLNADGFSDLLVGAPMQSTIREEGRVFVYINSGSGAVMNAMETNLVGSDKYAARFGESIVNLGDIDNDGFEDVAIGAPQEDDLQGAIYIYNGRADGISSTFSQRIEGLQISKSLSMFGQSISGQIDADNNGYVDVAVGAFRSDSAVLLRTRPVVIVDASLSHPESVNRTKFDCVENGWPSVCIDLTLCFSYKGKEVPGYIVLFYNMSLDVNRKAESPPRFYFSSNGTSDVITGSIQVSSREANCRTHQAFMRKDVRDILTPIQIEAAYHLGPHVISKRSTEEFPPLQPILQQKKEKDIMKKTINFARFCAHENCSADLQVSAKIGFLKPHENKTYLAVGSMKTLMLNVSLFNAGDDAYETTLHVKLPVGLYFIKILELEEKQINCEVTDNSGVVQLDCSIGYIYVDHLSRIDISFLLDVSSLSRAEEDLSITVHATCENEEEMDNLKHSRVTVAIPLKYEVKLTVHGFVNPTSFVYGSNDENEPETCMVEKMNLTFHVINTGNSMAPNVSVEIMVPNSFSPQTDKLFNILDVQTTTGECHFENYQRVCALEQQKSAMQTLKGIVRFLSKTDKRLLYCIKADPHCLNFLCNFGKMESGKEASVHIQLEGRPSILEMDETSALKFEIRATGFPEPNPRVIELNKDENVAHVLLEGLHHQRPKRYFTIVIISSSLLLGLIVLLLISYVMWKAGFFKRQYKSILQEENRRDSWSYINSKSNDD
Sequence (P05556 21-798): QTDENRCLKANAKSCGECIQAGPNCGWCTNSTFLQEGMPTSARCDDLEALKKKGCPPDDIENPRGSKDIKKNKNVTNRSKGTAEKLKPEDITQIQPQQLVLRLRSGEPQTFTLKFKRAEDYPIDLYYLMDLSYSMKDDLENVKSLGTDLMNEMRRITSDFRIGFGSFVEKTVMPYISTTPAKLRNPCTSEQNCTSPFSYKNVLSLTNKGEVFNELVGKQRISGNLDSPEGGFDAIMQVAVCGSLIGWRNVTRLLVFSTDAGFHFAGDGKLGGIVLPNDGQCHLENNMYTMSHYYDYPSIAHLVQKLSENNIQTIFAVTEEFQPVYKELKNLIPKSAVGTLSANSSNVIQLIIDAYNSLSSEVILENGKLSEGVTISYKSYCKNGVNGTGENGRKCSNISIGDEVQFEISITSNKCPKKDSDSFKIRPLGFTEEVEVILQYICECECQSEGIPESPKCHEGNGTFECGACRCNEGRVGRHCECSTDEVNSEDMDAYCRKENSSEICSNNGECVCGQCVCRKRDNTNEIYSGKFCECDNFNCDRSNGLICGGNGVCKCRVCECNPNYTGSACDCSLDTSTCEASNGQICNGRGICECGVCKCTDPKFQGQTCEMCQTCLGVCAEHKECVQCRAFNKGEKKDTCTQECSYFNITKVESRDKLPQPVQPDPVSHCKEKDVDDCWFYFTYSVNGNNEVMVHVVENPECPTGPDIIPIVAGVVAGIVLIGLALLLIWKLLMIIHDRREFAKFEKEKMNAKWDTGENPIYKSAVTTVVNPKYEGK
Outline: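 51Cr-labeled human Jurkat cells were preincubated with compound 30 min at about 22° C, then allowed to bind to wells coated with CS-1 peptide or CS-1-OVA for 30 min at 37° C. After washing, bound cells were lysed with SDS and counted. IC50 is the concentration halving binding, normalized to SEQ ID NO: 3.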

SMILES | Relative Potency
CC(=O)N[C@H]1[C@H](OCCCCCC(=O)N[C@@H](Cc2ccccc2)C(=O)N[C@@H](CC(C)C)C(=O)N[C@@H](CC(=O)O)C(=O)N[C@@H](Cc2ccccc2)C(=O)N2CCCCC2)O[C@H](CO)[C@@H](O)[C@@H]1O [1063.01] (Ac-[X20]FLDF-Piperidide) | 40.7

same assay, conditions: binding inhibition potency relative to standard compound of SEQ ID NO:3 = 1 (normalized IC50); about one-tenth or less assigned zero

SMILES | Relative Potency
CC(C)C[C@H](NC(=O)Cc1ccccc1)C(=O)N[C@@H](CC(=O)O)C(=O)N[C@@H](CCc1ccccc1)C(=O)N1CCC[C@@H]1C(N)=O [1062.03] (PhAc-LD[hPhe][dP]-NH2) | 93.9
CC(C)C[C@H](NC(=O)Cc1ccccc1)C(=O)N[C@@H](CC(=O)O)C(=O)N[C@@H](Cc1ccccc1)C(=O)N1C[C@@H](O)[C@@H](O)C1 [1070.01] | 194
Cc1ccc(S(=O)(=O)N2CCN(C(=O)[C@H](Cc3ccccc3)NC(=O)[C@H](CC(=O)O)NC(=O)[C@H](CC(C)C)NC(=O)Cc3ccccc3)CC2)cc1 [1111.01] | 363
CC(C)C[C@H](NC(=O)Cc1ccccc1)C(=O)N[C@@H](CC(=O)O)C(=O)N[C@@H](Cc1ccccc1)C(=O)N1CCSCC1 [1111.02] | 450
CC(C)C[C@H](NC(=O)Cc1ccccc1)C(=O)N[C@@H](CC(=O)O)C(=O)N[C@@H](Cc1ccccc1)C(=O)N1CCS(=O)(=O)CC1 [1111.03] | 1010
CC(C)C[C@H](NC(=O)Cc1ccccc1)C(=O)N[C@@H](CC(=O)O)C(=O)N[C@@H](Cc1ccccc1)C(=O)N1CCC(C(=O)O)CC1 [1111.04] (PhAc-LDF[Inp]-OH) | 836
CC(C)C[C@H](NC(=O)Cc1ccccc1)C(=O)N[C@@H](CC(=O)O)C(=O)N[C@@H](Cc1ccccc1)C(=O)N1CCC(C(N)=O)CC1 [1111.05] (PhAc-LDF[Inp]-NH2) | 942
CC(C)C[C@H](NC(=O)Cc1ccccc1)C(=O)N[C@@H](CC(=O)O)C(=O)N[C@@H](Cc1ccccc1)C(=O)N1CCN(CCOCCO)CC1 [1111.07] | 510
CC(C)C[C@H](NC(=O)Cc1ccccc1)C(=O)N[C@@H](CC(=O)O)C(=O)N[C@@H](Cc1ccccc1)C(=O)N1CC[N+](C)(C)CC1 [1111.08] | 218
CC(C)C[C@H](NC(=O)Cc1ccccc1)C(=O)N[C@@H](CC(=O)O)C(=O)N[C@@H](Cc1ccccc1)C(=O)N1CCN(CC(N)=O)CC1 [1111.09] | 324
CC(C)C[C@H](NC(=O)Cc1ccccc1)C(=O)N[C@@H](CC(=O)O)C(=O)N[C@@H](Cc1ccccc1)C(=O)NN1CCOCC1 [1111.10] | 98.9
NC(=O)[C@H]1CCCN1C(=O)[C@H](Cc1ccccc1)NC(=O)[C@H](CC(=O)O)NC(=O)[C@H](CC1CCCCC1)NC(=O)Cc1ccccc1 [1160.01] (PhAc-[Cha]DF[dP]-NH2) | 213
CCCC[C@H](NC(=O)Cc1ccccc1)C(=O)N[C@@H](CC(=O)O)C(=O)N[C@@H](Cc1ccccc1)C(=O)N1CCC[C@@H]1C(N)=O [1160.02] (PhAc-[Nle]DF[dP]-NH2) | 49
CC(C)C[C@H](NC(=O)Cc1ccccc1)C(=O)N[C@@H](CC(=O)O)C(=O)N[C@@H](Cc1ccccc1)C(=O)N1CCC(CC(=O)O)CC1 [1190.02] | 591
CC(C)C[C@H](NC(=O)Cc1ccccc1)C(=O)N[C@@H](CC(=O)O)C(=O)N[C@@H](Cc1ccccc1)C(=O)N1CCN(CCC(=O)O)CC1 [1190.03] | 998
CC(C)C[C@H](NC(=O)Cc1ccccc1)C(=O)N[C@@H](CC(=O)O)C(=O)N[C@@H](Cc1ccccc1)C(=O)N(C)CC(N)=O [1190.04] (PhAc-LDF[Sar]-NH2) | 196
CC(C)C[C@H](NC(=O)Cc1ccccc1)C(=O)N[C@@H](CC(=O)O)C(=O)N(C)[C@@H](Cc1ccccc1)C(=O)N1CCC[C@@H]1C(N)=O [1190.05] (PhAc-LD[NMeF][dP]-NH2) | 0
CC(C)C[C@H](NC(=O)Cc1ccccc1)C(=O)N(C)[C@@H](CC(=O)O)C(=O)N[C@@H](Cc1ccccc1)C(=O)N1CCC[C@@H]1C(N)=O [1190.06] (PhAc-L[NMeD]F[dP]-NH2) | 0
CC(C)C[C@@H](C(=O)N[C@@H](CC(=O)O)C(=O)N[C@@H](Cc1ccccc1)C(=O)N1CCC[C@@H]1C(N)=O)N(C)C(=O)Cc1ccccc1 [1190.07] (PhAc-[NMeL]DF[dP]-NH2) | 318

same assay, conditions: compared with standard 10-mer of SEQ ID NO:3

SMILES | VLA-4 binding inhibition compared in words
CCCCCCCCCCCCCCCCCCNC(=O)CCCCCNC(=O)[C@@H]1CCCN1C(=O)[C@H](Cc1ccccc1)NC(=O)[C@H](CC(=O)O)NC(=O)[C@H](CC(C)C)NC(=O)Cc1ccccc1 [Compound ID No. 1068.01, phenylacetyl-Leu-Asp-Phe-Pro-NH(CH2)5 C(O)NHC18 H37] (PhAc-LDFP[Ahx]-NHOctadecyl) | binding inhibition similar to that exhibited by the standard 10-mer compound
CC(C)C[C@H](NC(=O)[C@@H](N)Cc1ccccc1)C(=O)N[C@@H](CC(=O)O)C(=O)N[C@@H](Cc1ccccc1)C(=O)N1CCC[C@@H]1C(N)=O [Compound ID No. 1092.01] (H-FLDF[dP]-NH2) | binding inhibition better than that of the compound of SEQ ID NO:3

same assay, conditions: relative to SEQ ID NO:3 = 1; potency before the prodrug compound is enzymatically converted to an active form

SMILES | Relative Potency (prodrug compound)
CC(C)C[C@H](NC(=O)Cc1ccccc1)C(=O)N[C@@H](CC(=O)OCC(=O)OCc1ccccc1)C(=O)N[C@@H](Cc1ccccc1)C(=O)N1CCC[C@@H]1C(N)=O [1067.01] (PhAc-LD(X7)F[dP]-NH2) | .97
CC(C)C[C@H](NC(=O)Cc1ccccc1)C(=O)N[C@@H](CC(=O)OCC(=O)O)C(=O)N[C@@H](Cc1ccccc1)C(=O)N1CCC[C@@H]1C(N)=O [1067.02] (PhAc-LD(X6)F[dP]-NH2) | .81
CCCCCCCCCCCCCCCCCCNC(=O)CCCCCNC(=O)[C@@H]1CCCN1C(=O)[C@H](Cc1ccccc1)NC(=O)[C@H](CC(=O)O)NC(=O)[C@H](CC(C)C)NC(=O)Cc1ccccc1 [1068.01] (PhAc-LDFP[Ahx]-NHOctadecyl) | .91
CCCCCCCCCCNC(=O)[C@@H]1CCCN1C(=O)[C@H](Cc1ccccc1)NC(=O)[C@H](CC(=O)O)NC(=O)[C@H](CC(C)C)NC(=O)Cc1ccccc1 [1068.04] (PhAc-LDFP-NHDecyl) | 2.13
CCCCCCCCCCCCCCCCCC(=O)OC1CCN(C(=O)[C@H](Cc2ccccc2)NC(=O)[C@H](CC(=O)O)NC(=O)[C@H](CC(C)C)NC(=O)Cc2ccccc2)CC1 [1068.05] | .63
CCCCCCCCCC(=O)OC1CCN(C(=O)[C@H](Cc2ccccc2)NC(=O)[C@H](CC(=O)O)NC(=O)[C@H](CC(C)C)NC(=O)Cc2ccccc2)CC1 [1068.06] | .63
CC(C)C[C@H](NC(=O)Cc1ccccc1)C(=O)N[C@@H](CC(=O)OCc1ccccc1)C(=O)N[C@@H](Cc1ccccc1)C(=O)N1CCC[C@@H]1C(N)=O [1068.07] (PhAc-LD(OBn)F[dP]-NH2) | 0
CCCCCCCCCCOC(=O)C[C@H](NC(=O)[C@H](CC(C)C)NC(=O)Cc1ccccc1)C(=O)N[C@@H](Cc1ccccc1)C(=O)N1CCC[C@@H]1C(N)=O [1068.09] (PhAc-LD(ODecyl)F[dP]-NH2) | 0
CCCCCCCCCCCCOC(=O)C[C@H](NC(=O)[C@H](CC(C)C)NC(=O)Cc1ccccc1)C(=O)N[C@@H](Cc1ccccc1)C(=O)N1CCC[C@@H]1C(N)=O [1068.10] (PhAc-LD(X5)F[dP]-NH2) | 0
CCCCCCCCCCCCCCOC(=O)C[C@H](NC(=O)[C@H](CC(C)C)NC(=O)Cc1ccccc1)C(=O)N[C@@H](Cc1ccccc1)C(=O)N1CCC[C@@H]1C(N)=O [1068.11] (PhAc-LD(X1)F[dP]-NH2) | 0
CCCCCCCCCCCCCCCCCCOC(=O)C[C@H](NC(=O)[C@H](CC(C)C)NC(=O)Cc1ccccc1)C(=O)N[C@@H](Cc1ccccc1)C(=O)N1CCC[C@@H]1C(N)=O [1068.12] (PhAc-LD(X8)F[dP]-NH2) | 0
CCN(CC)C(=O)COC(=O)C[C@H](NC(=O)[C@H](CC(C)C)NC(=O)Cc1ccccc1)C(=O)N[C@@H](Cc1ccccc1)C(=O)N1CCC[C@@H]1C(N)=O [1068.13] (PhAc-LD(X4)F[dP]-NH2) | 0
CCOC(=O)C[C@H](NC(=O)[C@H](CC(C)C)NC(=O)Cc1ccccc1)C(=O)N[C@@H](Cc1ccccc1)C(=O)N1CCC[C@@H]1C(N)=O [1190.01] (PhAc-LD(OEt)F[dP]-NH2) | 0
